In one test the test system is Influenza A virus. The test is described as follows: Inhibitory activity against sialidase of influenza A. Type of test: functional, organism-based.
A further test has as its system Influenza B virus. The test is described as follows: Inhibitory activity against sialidase of influenza B. It counts as functional, organism-based.

Each structure is given as a SMILES string.

Usually IC50 stands for the midpoint of a concentration-inhibition curve.

Regarding `CCC(CC)O[C@@H]1OC(C(=O)O)=C[C@H](N)[C@H]1NC(C)=O`, the figures for the half-inhibitory concentration (IC50) in the test on Influenza A virus and in the test with Influenza B virus were 0.77 µM and 42 µM, respectively.

`CCN(CC)C(=O)[C@@H]1OC(C(=O)O)=C[C@H](N)[C@H]1NC(C)=O`: the concentration for half-maximal inhibition (IC50) was 0.003 µM with Influenza A virus and 0.36 µM in the test with Influenza B virus.

As for `CCC(CC)C(=O)[C@@H]1OC(C(=O)O)=C[C@H](N)[C@H]1NC(C)=O`, the IC50 stood at 0.002 µM with Influenza A virus and 0.47 µM with Influenza B virus.

With `CCC(CC)C(O)[C@@H]1OC(C(=O)O)=C[C@H](N)[C@H]1NC(C)=O` (some centres not stated), the half-inhibitory concentration (IC50) worked out at 0.039 µM with Influenza A virus and 7.4 µM in the test with Influenza B virus.

Regarding `CCC(CC)O[C@@H]1C=C(C(=O)O)C[C@H](N)[C@H]1NC(C)=O` [OSELTAMIVIR CARBOXYLATE], the IC50 in the test with Influenza A virus came to 0.002 µM; with Influenza B virus it was 0.032 µM.

As to `CC(=O)N[C@H]1[C@H]([C@H](O)[C@H](O)CO)OC(C(=O)O)=C[C@@H]1NC(=N)N` [ZANAMIVIR], the half-maximal inhibitory concentration (IC50) in the test on Influenza A virus was 0.005 µM; with Influenza B virus it was 0.004 µM.

The values above are taken from ChEMBL document CHEMBL1131951, “Sialidase inhibitors related to zanamivir: synthesis and biological evaluation of 4H-pyran 6-ether and ketone” (Bioorg Med Chem Lett, 1999).
